Results on 2 compounds are retold here after patent publication US11167059B2, “Compositions with reactive ingredients, and wound dressings, apparatuses, and methods” (KCI Licensing, Inc., priority 2010, dated 2021).

In series [1] the test system is Methicillin-resistant Staphylococcus aureus (MRSA). Nature of the series: inhibition zone on MRSA monolayer in petri dish. Type of series: cell-based. Conditions: 30 μg control dose, 18 hours at 37° C. The procedure: Experiments were performed for some of the present reactive agents (and/or resulting solutions) to investigate their antibacterial properties. In a first experiment, an even monolayer of Methicillin-resistant Staphylococcus aureus (MRSA) bacteria was spread across the surface of each of several petri dishes, and either a 30 μg control dose of Vancomycin, or an 8 mm×5 mm piece of sponge was placed on each petri dish. The pieces of sponge included: a piece of polyurethane foam coated with a silver (Ag), a piece of dry silicone foam, a piece of silicone foam impregnated with a Polyhexanide solution, a piece of silicone foam deposited with Ca(ClO)2 salt, and a piece of silicone foam deposited with NaClO salt. After placement of the pieces of foam, saline was dropped onto the foams deposited with Ca(ClO)2 and NaClO salts, respectively, Each petri dish was incubated for eighteen (18) hours at 37° C., and the clear area in which the bacteria had been killed (inhibition zone) was measured. […] In a second, similar experiment, the monolayer of bacteria was E. Coli instead of MRSA, and the remainder of the second experiment was substantially the same as the first. The results of the second experiment were also similar. […] From these preliminary experiments, the inventors believe the present reactive agents and the resulting solutions to have effective antimicrobial properties. […]

Series [2] is described as follows: compatibility of suspension agents with Ca(OCl)2 (OCl− concentration by UV-Vis). The format is physicochemical. The note with it: about 13 mg Ca(OCl)2 in methylene chloride solution of agent, about one hour in the dark. The procedure:
FIG. 6B depicts a chart illustrating the correlation of hypochlorite concentration from the UV absorbance of FIG. 6A with corresponding concentrations obtained by Iodine titration. FIG. 6C depicts a chart of OCl^− concentration in solutions with certain of the present suspension agents, including a control of only Ca(OCl)2 in solution (of methylene chloride), Ca(OCl)2 in PCL-1 solution having 0.5 g of PCL per 100 mL of methylene chloride; Ca(OCl)2 in PCL-2 solution having 1.0 g of PCL per 100 mL of methylene chloride; and Ca(OCl)2 in solution with TWEEN 80 (also known as polysorbate 80) having 0.1 g of TWEEN 80 per 10 g of methylene chloride. […] For each solution, approximately 13 mg of Ca(OCl)2 was added to each methylene chloride solution and the solution was placed in the dark for a period of about one hour. Then 5 mL of distilled water was added to each solution, and each was shaken to mix its respective ingredients. […] After settling, for each solution, one milliliter of the aqueous layer was removed and mixed with 10 mL of 0.1 N NaOH (e.g., to increase the pH to ensure all hypochlorous acid is converted to hypochlorite for complete capture of active chlorine), and evaluated with UV-Vis spectroscopy to determine the concentration of OCl (e.g., to determine whether the OCl— had degraded or been consumed by the polymer).

The compound `CN[C@H](CC(C)C)C(=O)N[C@H]1C(=O)N[C@@H](CC(N)=O)C(=O)N[C@H]2C(=O)N[C@H]3C(=O)N[C@H](C(=O)N[C@H](C(=O)O)c4cc(O)cc(O)c4-c4cc3ccc4O)[C@H](O)c3ccc(c(Cl)c3)Oc3cc2cc(c3O[C@@H]2O[C@H](CO)[C@@H](O)[C@H](O)[C@H]2O[C@H]2C[C@](C)(N)[C@H](O)[C@H](C)O2)Oc2ccc(cc2Cl)[C@H]1O` [Vancomycin] yielded an inhibition zone in series [1] of 200 mm^2.
In the case of polysorbate 80 [TWEEN 80], the “compatibility of suspension agent with Ca(OCl)2” value in series [2] is on record as “compatible with Ca(OCl)2”.
